From ChEMBL document CHEMBL1201862, “PubChem BioAssay data set” (2004)
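Step 1: Grow cells in 96-well plates. Step 2: Expose to compound for 48 hours at 5 concentrations. Step 3: Interpolate endpoints linearly; if unreached, use highest concentration. GI50 = concentration required for 50% inhibition of growth.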 Active and inactive are the calls of the source. No stated cut-off is given here; in the data, active = GI50 up to about 1.1 µM and inactive = higher.

Legend:
Experiment in all cases: inhibition of tumour cell growth, NCI panel, 48 h
A549 = test system: A549
ACHN = test system: ACHN
COLO 205 = test system: COLO 205
DLD-1 = test system: DLD-1
KM12 = test system: KM12
M14 = test system: M14
MOLT-4 = test system: MOLT-4
Malme-3M = test system: Malme-3M
NCI-H226 = test system: NCI-H226
OVCAR-5 = test system: OVCAR-5
OVCAR-8 = test system: OVCAR-8
RPMI-8226 = test system: RPMI-8226
SF-268 = test system: SF-268
SF-539 = test system: SF-539
SK-MEL-28 = test system: SK-MEL-28
SK-MEL-2 = test system: SK-MEL-2
SN12C = test system: SN12C
U-251 = test system: U-251
UACC-257 = test system: UACC-257
HOP-92 = test system: HOP-92

Measured: GI50

c1cnc2c(c1)-n1cccc1C1(CCSC1)NN2 (stereo not drawn)
inactive: A549 > 100 µM | ACHN > 100 µM | COLO 205 > 100 µM | DLD-1 > 100 µM | KM12 > 100 µM | M14 > 100 µM | MOLT-4 > 100 µM | Malme-3M > 100 µM | NCI-H226 > 100 µM | OVCAR-5 > 100 µM | OVCAR-8 > 100 µM | RPMI-8226 > 100 µM | SF-268 > 100 µM | SF-539 > 100 µM | SK-MEL-28 > 100 µM | SK-MEL-2 > 100 µM | SN12C > 100 µM | U-251 > 100 µM | UACC-257 > 100 µM

NC(CCC(=O)Nc1ccc(O)cc1)C(=O)O (stereo not drawn)
inactive: A549 > 100 µM | ACHN > 100 µM | COLO 205 > 100 µM | DLD-1 > 100 µM | HOP-92 > 100 µM | KM12 > 100 µM | M14 > 100 µM | MOLT-4 > 100 µM | Malme-3M > 100 µM | NCI-H226 > 100 µM | OVCAR-5 > 100 µM | OVCAR-8 > 100 µM | RPMI-8226 > 100 µM | SF-268 > 100 µM | SK-MEL-28 > 100 µM | SK-MEL-2 > 100 µM | SN12C > 100 µM | U-251 > 100 µM | UACC-257 > 100 µM

N#CC1(c2nc3ccccc3o2)C(=O)C(=O)N(c2ccc(Cl)c(Cl)c2)C(=O)C1=O
inactive: A549 > 100 µM | ACHN > 100 µM | COLO 205 > 100 µM | DLD-1 > 100 µM | HOP-92 12.2 µM | KM12 > 100 µM | M14 > 100 µM | MOLT-4 30.3 µM | Malme-3M > 100 µM | NCI-H226 > 100 µM | OVCAR-5 > 100 µM | OVCAR-8 > 100 µM | RPMI-8226 > 100 µM | SF-268 > 100 µM | SK-MEL-28 > 100 µM | SK-MEL-2 > 100 µM | SN12C > 100 µM | UACC-257 > 100 µM

Cc1cc2c(cc1CO)N1Cc3cc(C)c(CO)cc3N(C2)C1
inactive: A549 > 100 µM | COLO 205 > 100 µM | DLD-1 > 100 µM | KM12 > 100 µM | M14 > 100 µM | MOLT-4 > 100 µM | NCI-H226 > 100 µM | OVCAR-8 > 100 µM | RPMI-8226 > 100 µM | SF-268 > 100 µM | SF-539 > 100 µM | SK-MEL-28 > 100 µM | SN12C > 100 µM | U-251 > 100 µM

N#CC12CCC(O)C(CC1)C2=O (stereo not drawn)
inactive: A549 > 100 µM | ACHN > 100 µM | COLO 205 87.9 µM | DLD-1 47.3 µM | KM12 > 100 µM | M14 > 100 µM | MOLT-4 > 100 µM | Malme-3M > 100 µM | NCI-H226 > 100 µM | OVCAR-5 > 100 µM | OVCAR-8 > 100 µM | RPMI-8226 26.9 µM | SF-268 > 100 µM | SF-539 > 100 µM | SK-MEL-28 > 100 µM | SK-MEL-2 > 100 µM | SN12C > 100 µM | U-251 > 100 µM | UACC-257 > 100 µM

Cc1ccc(NC(=O)C(=O)C(C#N)c2nc(-c3ccc(-c4ccccc4)cc3)cs2)c(C)c1 (stereo not drawn)
inactive: A549 > 100 µM | ACHN > 100 µM | COLO 205 > 100 µM | DLD-1 > 100 µM | M14 > 100 µM | MOLT-4 > 100 µM | Malme-3M > 100 µM | NCI-H226 > 100 µM | OVCAR-5 > 100 µM | OVCAR-8 > 100 µM | RPMI-8226 > 100 µM | SF-268 > 100 µM | SF-539 > 100 µM | SK-MEL-28 > 100 µM | SK-MEL-2 > 100 µM | SN12C > 100 µM | U-251 47.3 µM | UACC-257 58.7 µM

CC(C)(C)c1cc(COc2c3sc(=S)sc3c(OCc3cc(C(C)(C)C)cc(C(C)(C)C)c3)c3sc(=S)sc23)cc(C(C)(C)C)c1
inactive: A549 > 100 µM | ACHN > 100 µM | COLO 205 > 100 µM | DLD-1 > 100 µM | M14 > 100 µM | MOLT-4 > 100 µM | OVCAR-8 > 100 µM | RPMI-8226 > 100 µM | SF-539 > 100 µM | SK-MEL-28 > 100 µM | SN12C > 100 µM | U-251 > 100 µM | UACC-257 > 100 µM

O=C1C(O)=C(CN(CCCl)CCCl)C(=O)c2ccccc21
inactive: A549 34.3 µM | ACHN 35.2 µM | DLD-1 44.3 µM | HOP-92 56.5 µM | KM12 56.5 µM | M14 65.6 µM | MOLT-4 29.3 µM | Malme-3M 53.5 µM | OVCAR-5 76.9 µM | OVCAR-8 76.9 µM | SF-268 43.1 µM | SF-539 34 µM | SK-MEL-28 > 100 µM | SK-MEL-2 > 100 µM | SN12C 57.1 µM | U-251 64.3 µM

CC1CC2(CC[C@@H]1O)OCCO2 (stereo partly drawn)
inactive: A549 > 100 µM | COLO 205 > 100 µM | DLD-1 > 100 µM | HOP-92 > 100 µM | KM12 > 100 µM | M14 > 100 µM | MOLT-4 > 100 µM | Malme-3M > 100 µM | OVCAR-8 > 100 µM | RPMI-8226 > 100 µM | SF-539 > 100 µM | SK-MEL-2 > 100 µM | SN12C > 100 µM | U-251 > 100 µM | UACC-257 > 100 µM

COCN(C)c1nc(N(C)C)nc(N(C)C)n1
inactive: A549 > 100 µM | ACHN > 100 µM | COLO 205 > 100 µM | DLD-1 > 100 µM | HOP-92 > 100 µM | KM12 > 100 µM | M14 > 100 µM | MOLT-4 > 100 µM | Malme-3M > 100 µM | OVCAR-5 > 100 µM | OVCAR-8 > 100 µM | RPMI-8226 > 100 µM | SF-268 > 100 µM | SF-539 > 100 µM | SK-MEL-28 > 100 µM | SK-MEL-2 > 100 µM | SN12C > 100 µM | U-251 > 100 µM | UACC-257 > 100 µM

COc1ccc(N/N=C(\CCN(C)C)c2ccccc2)cc1
inactive: A549 1.67 µM | ACHN 1.36 µM | COLO 205 2.78 µM | DLD-1 1.66 µM | KM12 4.73 µM | M14 10.9 µM | MOLT-4 3.39 µM | Malme-3M 11.7 µM | OVCAR-5 9.57 µM | OVCAR-8 12.8 µM | RPMI-8226 2.39 µM | SF-268 1.62 µM | SF-539 1.68 µM | SK-MEL-28 2.69 µM | SK-MEL-2 4.49 µM | SN12C 3.9 µM | U-251 1.79 µM | UACC-257 3.78 µM
